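Dose response: 5 concentrations. Exposure: 48 h. Format: 96-well plates. Endpoint: linear interpolation; highest concentration if not reached. GI50: concentration for 50% inhibition of growth. Definition used: TGI = concentration required for complete inhibition of growth.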

Some test systems named below: HL-60(TB) leukemia; HOP-92 NSCLC; MOLT-4 leukemia; NCI-H460 lung; OVCAR-3 ovarian; SR leukemia; SW-620 colon; TK-10 renal; U251 CNS; UO-31 renal; UACC-257 melanoma.
Common to all, as to test: DTP human tumour cell line panel, 48 h

Turning to `O=C(O)C1(CC(CCCN2CCCCC2)c2ccccc2)CCCC1` (configuration not stated), the concentration for total growth inhibition (TGI) in the test on HL-60(TB) leukemia, in the test with HOP-92 NSCLC, in the test on MOLT-4 leukemia, in the test with NCI-H460 lung, in the test on OVCAR-3 ovarian and in the test with SR leukemia was over 100 µM throughout. Further, the total growth inhibition concentration (TGI) in the test with SW-620 colon, in the test with TK-10 renal, with U251 CNS and in the test on UO-31 renal was over 100 µM throughout.
Regarding `C/C=C/COc1cc(NC(=S)c2ccoc2C)ccc1OC`, the TGI in the test on HL-60(TB) leukemia, in the test on HOP-92 NSCLC, with MOLT-4 leukemia, in the test with OVCAR-3 ovarian, with SR leukemia and in the test with SW-620 colon was over 100 µM each time. Besides, the concentration for total growth inhibition (TGI) in the test with TK-10 renal, with U251 CNS, in the test with UACC-257 melanoma and with UO-31 renal was over 100 µM throughout.
For the molecule `Cc1ccc(-c2nc3n(c2/C=N\N=C(N)N)CCS3)cc1`, the TGI – broadly, the concentration giving total growth inhibition – in the test on HL-60(TB) leukemia was 78.3 µM; in the test with HOP-92 NSCLC it was 34 µM; with MOLT-4 leukemia it was over 100 µM; in the test with NCI-H460 lung, 32 µM; with SR leukemia it was over 100 µM; with SW-620 colon it was 30.8 µM. In addition, the TGI with TK-10 renal amounted to 33.1 µM; in the test on U251 CNS, 28.4 µM; with UACC-257 melanoma, 30.5 µM; with UO-31 renal, 30.5 µM.
For the molecule `O=C(/C=C\c1ccc(OCCCCCC[P+](c2ccccc2)(c2ccccc2)c2ccccc2)cc1)c1ccc2c(c1)OCCO2`, the 50% growth inhibitory concentration (GI50) – broadly, the concentration at which growth is held to half of that of the control – in the test on HL-60(TB) leukemia was 0.326 µM; in the test on HOP-92 NSCLC, 0.487 µM; with MOLT-4 leukemia, 2.32 µM; in the test with NCI-H460 lung it was 1.01 µM; with OVCAR-3 ovarian, 0.423 µM; in the test with SR leukemia it was 0.656 µM. For the same molecule, the GI50 is 1.11 µM in the test on SW-620 colon, 1.58 µM in the test on TK-10 renal and 1.52 µM in the test on UO-31 renal. Besides, the total growth inhibition concentration (TGI) in the test on HL-60(TB) leukemia came to 1.3 µM; in the test on HOP-92 NSCLC it was 2.79 µM; with MOLT-4 leukemia, 8.57 µM; in the test on NCI-H460 lung, 2.5 µM; in the test on OVCAR-3 ovarian it was 1.61 µM; with SR leukemia, 9.07 µM. Moreover, the results for the total growth inhibition concentration (TGI) in the test with SW-620 colon, in the test on TK-10 renal and in the test with UO-31 renal were 2.55 µM, 3.81 µM and 3.2 µM, respectively.
Regarding `CCOC(=O)C1CCCC1S(=O)(=O)c1ccc(C)cc1` (configuration not stated), the TGI with HL-60(TB) leukemia, in the test on HOP-92 NSCLC, in the test on MOLT-4 leukemia, in the test with NCI-H460 lung, in the test with OVCAR-3 ovarian and in the test on SR leukemia was over 100 µM throughout. Moreover, the TGI in the test with SW-620 colon, in the test on TK-10 renal, in the test with U251 CNS and in the test on UO-31 renal was over 100 µM each time.
For the molecule `CCOc1ccc(C(c2c(O)c3ccccc3oc2=O)c2c(O)c3ccccc3oc2=O)cc1`, the total growth inhibition concentration (TGI) with HL-60(TB) leukemia was 50.2 µM; with HOP-92 NSCLC, 65.1 µM; in the test on MOLT-4 leukemia, over 100 µM; in the test on OVCAR-3 ovarian it was over 100 µM; in the test on SR leukemia it was 58.7 µM; with SW-620 colon, over 100 µM. Moreover, the TGI with TK-10 renal, in the test with U251 CNS, in the test with UACC-257 melanoma and in the test on UO-31 renal was over 100 µM in each case.
Take `O=C(Cc1ccccc1)NN1C(=O)C(Cl)C1c1ccccc1` (configuration not stated): the TGI is over 100 µM in the test with HL-60(TB) leukemia; 81.8 µM with MOLT-4 leukemia; over 100 µM in the test with NCI-H460 lung; over 100 µM in the test on OVCAR-3 ovarian; 55.3 µM with SR leukemia; over 100 µM in the test with SW-620 colon. Besides, the TGI with TK-10 renal, in the test with U251 CNS, in the test with UACC-257 melanoma and with UO-31 renal was over 100 µM in each case.
For the molecule `CC(C)(CO)NC(=O)c1cccc(C(=O)NC(C)(C)CO)c1Br`, the total growth inhibition concentration (TGI) with HL-60(TB) leukemia, in the test with HOP-92 NSCLC, in the test on MOLT-4 leukemia, in the test with NCI-H460 lung, in the test on SR leukemia and in the test with SW-620 colon was over 100 µM each time. The total growth inhibition concentration (TGI) in the test with TK-10 renal, with U251 CNS, in the test on UACC-257 melanoma and with UO-31 renal was over 100 µM in each case.
As to `O=c1[nH]c2cc([N+](=O)[O-])c(N(CCO)CCO)c([N+](=O)[O-])c2[nH]1`, the total growth inhibition concentration (TGI) is 80.9 µM in the test with HL-60(TB) leukemia; over 100 µM in the test with HOP-92 NSCLC; 91.7 µM in the test on MOLT-4 leukemia; 43.2 µM in the test with NCI-H460 lung; 33.3 µM with OVCAR-3 ovarian; over 100 µM in the test on SR leukemia. Moreover, the TGI in the test with SW-620 colon is over 100 µM; in the test on U251 CNS, over 100 µM; in the test with UACC-257 melanoma, 59.3 µM; in the test with UO-31 renal, over 100 µM.
As to `COC(=O)C1=C2Nc3ccccc3C23CCN2C(O)C4(CC5CC67CCOC6CCN6CCC8(c9cccc(OC)c9N(C4)C58O)C67)C4OCCC4(C1)C23` (configuration not stated), the TGI with HL-60(TB) leukemia is over 100 µM; in the test with HOP-92 NSCLC it was 87.7 µM; in the test with NCI-H460 lung it was over 100 µM; in the test on OVCAR-3 ovarian it was over 100 µM; with SR leukemia, over 100 µM; in the test with SW-620 colon it was over 100 µM. In addition, the TGI in the test with TK-10 renal, with U251 CNS, in the test on UACC-257 melanoma and in the test on UO-31 renal was over 100 µM throughout.
In the case of `CC[S+](C)c1ccc(-c2c3nc(c(-c4ccc([S+](C)CC)cc4)c4ccc([nH]4)c(-c4ccc([S+](C)CC)cc4)c4nc(c(-c5ccc([S+](C)CC)cc5)c5ccc2[nH]5)C=C4)C=C3)cc1` (configuration not stated), the TGI in the test on HL-60(TB) leukemia is 49.9 µM; in the test with HOP-92 NSCLC it was over 100 µM; in the test on MOLT-4 leukemia, 67.1 µM; in the test with NCI-H460 lung, over 100 µM; in the test with OVCAR-3 ovarian, over 100 µM; in the test on SR leukemia, 87.5 µM. In addition, the TGI with SW-620 colon, with U251 CNS and with UACC-257 melanoma was over 100 µM throughout.
Turning to `CCC(=O)n1c(=O)n(-c2ccc([N+](=O)[O-])cc2)c(=O)n1C(=O)CC`, the TGI with HL-60(TB) leukemia, in the test on MOLT-4 leukemia, with NCI-H460 lung, in the test on OVCAR-3 ovarian, with SR leukemia and in the test on SW-620 colon was over 100 µM throughout. Also, the total growth inhibition concentration (TGI) in the test with TK-10 renal, in the test with U251 CNS, with UACC-257 melanoma and in the test on UO-31 renal was over 100 µM each time.

For the origin of these results see PubChem BioAssay (NCI).
